Patent US20250290916A1 (Antibody Analytics Limited, priority 2022, published 2025)
“Also recorded” adds a separate entry of the source. Blank lines part the entries; values can stand above or below the compound they belong to.

Columns and labels:
ABA CIP system [1] = assay: tagBFP and CD19 reporter expression in CHO-K1 ABA activator cells; assay type: cell-based
Method: CD19 expression was detected by flow cytometry analysis and the number of CD19 receptors per cell was quantified using a Quantibrite PE bead fluorescence quantification kit (BD Biosciences). The CD19 receptors per cell for Ramos, Raji and B cells isolated from PBMCs are shown by way of comparison.
(§1) Following this incubation, the cells were analysed for CD19 expression by flow cytometry.
CD19 expression was detected by anti-CD19 staining (Biolegend #302254) and flow cytometry analysis. The number of CD19 receptors per cell was quantified using a Quantibrite PE bead fluorescence quantification kit (BD Biosciences #340495).

IAA CIP system [2] = assay: EGFP reporter expression in HEK293 cells with IAA activator cassette and i-Scel EGFP reporter; assay type: cell-based; details: 24 hours
From the text: (§2) The levels of expression correlate with the number of i-Scel sites, with negligible induction observed at 1× i-Scel and the highest induction over background observed with the 10× i-Scel sites reporter. […] However, the inventors predict, that the inclusion of higher numbers of i-Scel binding sites in the reporter/TAOI cassette, would result in higher levels of induction of the reporter/TAOI.
(§3) Therefore, the 5× and 10× i-Scel binding site pools for HEK293 and CHO-K1 cells were single cell dilution cloned, and colonies picked from each cell pool and then analysed for induction of expression following IAA treatment. […] The HEK293 and CHO-K1 cells containing the IAA activator cassette and the 10× and 5× i-Scel reporter constructs were seeded overnight in 96 well plates. IAA was added at the indicated concentration and the cells were incubated for a further 24 hours. EGFP expression was detected by flow cytometry analysis.
(§4) The HEK293 and CHO-K1 cells containing the IAA activator cassette and the 10× i-Scel reporter construct were seeded overnight in 96 well plates. IAA was added at the indicated concentrations and the cells were incubated for a further 24 hours. EGFP expression was detected by flow cytometry analysis.
(§5) HEK293 and CHO-K1 cells containing the IAA activator cassette and the EGFP reporter constructs were seeded in 6 well plates. Following overnight incubation, the media was replaced with fresh media containing the indicated concentrations of IAA and the cells incubated for a further 24 hours. EGFP expression was detected using a NovoCyte flow cytometer (ACEA).

IAA CIP system [3] = assay: CD19 expression in CHO-K1 IAA activator 10× i-Scel CD19 reporter cells; assay type: cell-based
From the text: To test the system in a therapeutically relevant target, a construct expressing CD19 under the control of 10× i-Scel binding sites was introduced into the IAA activator cassette containing CHO-K1 cells and clones isolated. As the purpose of the system is to provide titratable expression of a given receptor (usually a tumour associated antigen) within a biologically relevant range, the CD19 expression was quantified using a Quantibrite bead fluorescence quantification kit which contains multiple bead populations each conjugated with set numbers of fluorophore molecules (PE in this case) per bead. Assuming the fluorophore conjugation to the detection antibody is at a 1:1 ratio (which was confirmed by the manufacture) and antibody binding to the receptor of interest (CD19) occurs at a 1:1 ratio, the number of CD19 receptors per cell can be calculated. By means of comparison, the CD19 expression level of the CD19 positive cells found in peripheral blood mononuclear cells (PBMCs), e.g. B cells, and Ramos cells were calculated in the same experiment.
as §1
CHO-K1 cells containing the IAA activator cassette and a 10× i-Scel CD19 reporter construct were seeded overnight in 96 well plates. […] CD19 expression was assess by flow cytometry and quantified for receptor number per cell. […]

ABA CIP system [4] = assay: ABA-inducible CD22 expression in CHO-K1 cells containing both IAA and ABA CIP systems; assay type: cell-based; details: CHO-K1 IAA CD19 / ABA CD22 cells, IAA concentration series
Method: (§6) CD22 and CD19 expression was measured by flow cytometry and mean fluorescence intensity corresponding to CD22 and CD19 expression was plotted.

CHO-K1 cells = assay: Cytotoxicity on CHO-K1 cells, eFluor780 fixable viability dye, flow cytometry; assay type: cell-based; details: increasing concentrations, 24 hours
Method: (§7) Before IAA was used as an expression inducer for the transduced cell lines, it was assessed for any cytotoxic effects on CHO-K1 and HEK293 cells. Cell viability in both HEK293 and CHO-K1 cells was measured by flow cytometry 24 hours post addition of IAA over the concentration range indicated.
(§8) HEK293 and CHO-K1 cells were treated with the indicated concentrations of IAA for 24 hours before being stained with eFluor780 fixable viability dye and analysed by flow cytometry.

CD4+ and CD8+ T cells = assay: Proliferation and IFNγ production of PBMC T cells stimulated with CD3/CD28 Dynabeads; assay type: cell-based, human; details: PBMCs from two donors, concentration series, 96 hrs; for IFNγ production: ELISA; for proliferation of CD4+ T cells / proliferation of CD8+ T cells: proliferation dye
From the text: One of the main considerations for application of the CIP system in immunology assays using primary human immune cells, is the effect that the small molecules (e,g. IAA) may have on cell viability and normal function. For example, one of the main limitations of one of the rapamycin-CIP systems is the high immunoregulatory effect of rapamycin on immune cells that limits its applicability in immunology assays. The inventors assessed the effect of IAA in the function of immune cells. PBMCs from two donors were stimulated with Human T-Activator CD3/CD28 targeting Dynabeads to stimulate T cell activation and proliferation, in the presence of a increasing concentration series of IAA. T cell proliferation and IFNγ production was analysed 96 hrs post stimulation to determine any negative effects on T cells. The concentration series of IAA was selected to reflect the concentration expected to be used in assays. […] Proliferation of CD4+ (A) and CD8+ (B) T cells was assessed by flow cytometry using a proliferation dye. The results are shown in FIG. 3, IFNγ production was assessed by ELISA (panel C), n=3, graphs report […]+SD.
For example one of the main limitation of one of the rapamycin-CIP system is the high immunoregulatory effect of rapamycin on immune cells that limits its applicability in immunology assays.
Peripheral Blood Mononuclear Cells (PBMCs) from two donors were labelled with eBioscience™ Cell Proliferation Dye eFluor™ 670 (ThermoFisher #65-0840-90). […] The cells were incubated for 96 hrs in a humidified incubator at 37° C./6% CO2 at which point proliferation of CD4+ and CD8+ T cells was assessed by flow cytometry. In parallel, supernatants were collected and the levels of IFNγ was analysed by ELISA (Human IFN-gamma DuoSet ELISA, R&D systems #DY285B).

IAA CIP system [5] = assay: EGFP reporter expression in CHO-K1 cells with IAA activator cassette and i-Scel EGFP reporter; assay type: cell-based; details: 24 hours
From the text: as §2, §3, §4, §5

HEK293 cells = assay: Cytotoxicity on HEK293 cells, eFluor780 fixable viability dye, flow cytometry; assay type: cell-based; details: increasing concentrations, 24 hours
Method: as §7, §8

CD19 = target: T1, CD19 (Homo sapiens, UniProt P15391); assay: T cell engager assay, Jurkat NFAT luciferase reporter cells with CHO-K1 IAA or ABA activator CD19 reporter cells; assay type: cell-based
T1 construct: expressed in transfected cells
T1 sequence (P15391 20-556): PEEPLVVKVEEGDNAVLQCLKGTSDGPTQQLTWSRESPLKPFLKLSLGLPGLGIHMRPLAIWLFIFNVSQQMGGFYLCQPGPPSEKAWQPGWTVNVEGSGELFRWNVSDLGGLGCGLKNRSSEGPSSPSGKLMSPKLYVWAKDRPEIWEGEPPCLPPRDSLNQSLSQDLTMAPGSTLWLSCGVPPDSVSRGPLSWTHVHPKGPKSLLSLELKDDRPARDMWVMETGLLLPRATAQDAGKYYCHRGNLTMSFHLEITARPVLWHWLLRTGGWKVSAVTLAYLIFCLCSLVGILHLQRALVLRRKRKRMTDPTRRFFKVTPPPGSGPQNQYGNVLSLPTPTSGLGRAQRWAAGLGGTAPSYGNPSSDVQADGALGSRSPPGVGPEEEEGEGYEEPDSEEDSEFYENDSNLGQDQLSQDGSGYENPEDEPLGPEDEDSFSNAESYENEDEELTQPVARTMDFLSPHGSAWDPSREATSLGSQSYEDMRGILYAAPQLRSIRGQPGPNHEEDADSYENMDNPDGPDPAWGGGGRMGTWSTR
Method: This represents a typical assay set up for measuring the effect of a bispecific against cells expressing its target antigen.
NFAT activation was determined by luminescence after 24 hours (48 Hours from assay start) and plotted against CD19 expression quantified by staining with PE anti-CD19 and plotted on a curve generated using Quantibrite PE receptor quantification kit. n=3, graphs report mean±SD.

ABA CIP system [6] = assay: tagBFP and CD19 reporter expression in HEK293 ABA activator cells; assay type: cell-based; details: 1000 μM ABA, 24 hours
IAA CIP system [7] = assay: IAA-inducible CD19 expression in CHO-K1 cells containing both IAA and ABA CIP systems; assay type: cell-based; details: CHO-K1 IAA CD19 / ABA CD22 cells, ABA concentration series
Method: as §6

[8] = CHO-K1 ABA activator cells, 1000 μM ABA, 24 hours

Compound: O=C(O)Cc1c[nH]c2ccccc12 [IAA, indole-3-acetic acid]
CD19 expression from the ABA CIP system (cross-talk) (ABA CIP system [1]; CHO-K1 ABA activator CD19 reporter cells, 1000 μM IAA, 24 hours): does not induce expression | dose dependence of EGFP expression (IAA CIP system [2]; HEK293 10× i-Scel EGFP clone): dose-dependent induction of EGFP expression | induction of EGFP expression (IAA CIP system [2]; HEK293 stable pools, 1×, 5×, 10× i-Scel sites): induction of expression of EGFP can clearly be seen | additional induction of EGFP at 1000 μM compared to 500 μM (IAA CIP system [2]; HEK293 stable pools): no evidence of additional induction | dose dependence of CD19 expression (receptors per cell) (IAA CIP system [3]; CHO-K1 IAA activator 10× i-Scel CD19 clone, IAA concentration range, 72 hours): a dose dependent range of CD19 expression has been achieved | CD22 expression from the ABA system upon IAA (cross-talk in a single cell line) (ABA CIP system [4]): does not induce expression; also recorded: without IAA inducing ABA-activated CD22 expression | cell viability (percentage of cells which do not take up the dye) (CHO-K1 cells): no decrease in cell viability was observed | IFNγ production (CD4+ and CD8+ T cells): little or no effect | proliferation of CD4+ T cells (CD4+ and CD8+ T cells): little or no effect | proliferation of CD8+ T cells (CD4+ and CD8+ T cells): little or no effect | dose dependence of EGFP expression (IAA CIP system [5]; CHO-K1 10× i-Scel EGFP clone): dose-dependent induction of EGFP expression | induction of EGFP expression (IAA CIP system [5]; CHO-K1 stable pools, 1×, 5×, 10× i-Scel sites): induction of expression of EGFP can clearly be seen | additional induction of EGFP at 1000 μM compared to 500 μM (IAA CIP system [5]; CHO-K1 stable pools): no evidence of additional induction | cell viability (percentage of cells which do not take up the dye) (HEK293 cells): no decrease in cell viability was observed

NFAT luciferase signal against number of CD19 receptors (CD19; Blincyto 10 ng/mL and 25 ng/mL, luminescence after 24 hours): concurrent increase in luciferase signal
Compound: Blincyto: CD19×CD3 targeting bispecific T cell engager
NFAT luciferase signal at the higher concentration compared to the lower (CD19; Blincyto 25 ng/mL versus 10 ng/mL): higher but remains IAA and ABA dose dependent

Compound: S-(+)-abscisic acid [ABA]
dose dependence of CD19 expression (receptors per cell) (ABA CIP system [1]; CHO-K1 ABA activator 9×Gal4 UAS CD19 clone, ABA concentration range, 48 hours): dose dependent induction of CD19 expression | CD19 expression (ABA CIP system [1]; [8]): expression of both tagBFP and CD19 was obtained | tagBFP expression (ABA CIP system [1]; [8]): expression of both tagBFP and CD19 was obtained | CD19 expression (ABA CIP system [6]): expression of both tagBFP and CD19 was obtained | tagBFP expression (ABA CIP system [6]): expression of both tagBFP and CD19 was obtained | CD19 expression from the IAA CIP system upon ABA (cross-talk in a single cell line) (IAA CIP system [7]): does not induce expression; also recorded: without ABA inducing IAA-activated CD 19 expression | CD19 expression from the IAA system (cross-talk) (IAA CIP system [3]; CHO-K1 IAA activator CD19 reporter cells, 1000 μM ABA, 24 hours): does not induce expression | IFNγ production (CD4+ and CD8+ T cells): minimal effects | proliferation of CD4+ T cells (CD4+ and CD8+ T cells): minimal effects | proliferation of CD8+ T cells (CD4+ and CD8+ T cells): minimal effects
